The values that follow come from patent US20250188059A1, “NOVEL COMPOUND AND USE THEREOF FOR INHIBITING CHECKPOINT KINASE 2” (ARUM THERAPEUTICS INC, priority 2022, published 2025).

Like-named read-outs stand apart in the source and are kept apart here.

One assay addresses Chk2 kinase (Homo sapiens (Human), UniProt O96017). Kind of assay: Chk2 kinase inhibitory activity (LanthaScreen TR-FRET). It counts as biochemical. The following applies: graded. As for the experimental part:
The compounds of Examples 1 to 66 were diluted at various concentrations and transferred to a 384-well plate by 5 μl, and 10 μl of a mixed solution (2×) of Chk1 kinase (Thermo, P3040) or Chk2 kinase (Thermo, PV3367) and a substrate (Thermo, PV3508) was added to wells treated with the compounds. 5 μl of an ATP solution at a 4× concentration was added to the test well and reacted at room temperature for 1 hour. 20 μl of LanthaScreen Terbium-CREB p-Ser 133 antibody (Thermo, PV3542) was added to the reaction well and incubated at room temperature for 30 minutes. Conversion data was measured by an EnVision 2014 multi label reader (PerkinElmer). The activity for each concentration was determined by the ratio (FRET ratio=FR) of the value obtained by dividing the value at 520 nm by the value at 490 nm among the emission wavelength values for each wavelength (Em520/Em490). The results obtained for each concentration of the compounds were the average values obtained in two wells, and the IC50 values of the compounds were calculated using PRIZM software for analysis of the results. IC50 in Table 7 was graded as follows.

Assay [1] deals with human breast cancer cell line MCF-7. Kind of assay: Cancer cell growth inhibition test (CellTiter-Glo). The class given is cell-based. The following applies: MCF-7, 72 hours. As for the experimental part: The human breast cancer cell line MCF-7 was treated with trypsin and harvested. The number of cells was counted, and about 3000 cells/80 μl per well were inoculated into a 96 well plate (Corning) and then incubated in a 37° C. incubator for 24 hours. Thereafter, the example compounds were diluted in a culture solution at various concentrations, and each well was treated with 20 μl and stored in a cell culture incubator for 72 hours. In the case of the group administered in combination, the example compounds and cisplatin or doxorubicin were diluted in a culture solution at various concentrations, and each well was treated with 20 μl. After 72 hours, each well was treated with 30 μl of CellTiter-Glo solution (Promega), and the luminescence was read on a Victor3 multi label reader (PerkinElmer).
Relative viability (%)=(value of each test well/value of well treated with DMSO alone)×100
The results obtained for each concentration for each example compound were the average values obtained from three wells, and PRIZM software was used for analysis of the results.
(In general: Cellular ATP, detected with luciferase, serves as a proxy for viable cell number.)

[2] abbreviates: Homo sapiens, MCF7, 72 h, graded, read-out: Celltiter glo analysis (IC50).

Chk2 kinase, sequence (O96017 whole entry): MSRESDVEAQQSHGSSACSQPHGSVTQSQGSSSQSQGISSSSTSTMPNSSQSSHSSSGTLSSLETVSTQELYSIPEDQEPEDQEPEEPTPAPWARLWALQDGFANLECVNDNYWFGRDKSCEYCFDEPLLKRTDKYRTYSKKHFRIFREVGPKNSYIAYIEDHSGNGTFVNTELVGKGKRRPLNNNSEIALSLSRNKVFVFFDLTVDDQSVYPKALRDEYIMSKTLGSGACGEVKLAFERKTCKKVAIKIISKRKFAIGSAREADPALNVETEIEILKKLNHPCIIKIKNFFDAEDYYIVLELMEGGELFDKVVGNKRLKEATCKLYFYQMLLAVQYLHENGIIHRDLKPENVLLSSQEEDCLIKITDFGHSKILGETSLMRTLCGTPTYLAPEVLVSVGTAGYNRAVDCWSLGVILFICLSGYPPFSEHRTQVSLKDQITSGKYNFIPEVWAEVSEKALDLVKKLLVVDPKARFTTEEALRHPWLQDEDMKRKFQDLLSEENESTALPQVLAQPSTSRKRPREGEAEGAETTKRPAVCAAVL

One may read the IC50 as the midpoint of a concentration-inhibition curve. Consider `CC1(C)Cc2c(-c3ccc(F)c(-c4cnc(N)c(C(=O)N[C@@H]5CNCC[C@H]5O)n4)c3)cnn2C1` [Example 47, 3-amino-6-(5-(5,5-dimethyl-5,6-dihydro-4H-pyrrolo[1,2-b]pyrazol-3-yl)-2-fluorophenyl)-N-((3R,4R)-4-hydroxypiperidine-3-yl) pyrazine-2-carboxamide], for which the concentration for half-maximal inhibition (IC50) against Chk2 kinase lay within 0.01 to 0.1 µM; in assay [1] (setting [2]), 10 to 100 µM.
Taken in the same sequence, the figures for `Nc1ncc(-c2cc(-c3cnn(CC(F)(F)F)c3)ncc2F)nc1C(=O)N[C@@H]1CNCC[C@H]1O` [Example 3, 3-amino-6-(5-fluoro-2-(1-(2,2,2-trifluoroethyl)-1H-pyrazol-4-yl)pyridin-4-yl)-N-((3R,4R)-4-hydroxypiperidin-3-yl)pyrazine-2-carboxamide] were ≤ 0.01 µM and 10 to 100 µM.
Consider `CC1(C)Cc2c(-c3cc(-c4cnc(N)c(C(=O)N[C@H]5CCC6(CC6)NC5)n4)ccn3)cnn2C1` [Example 50, (S)-3-amino-6-(2-(5,5-dimethyl-5,6-dihydro-4H-pyrrolo[1,2-b]pyrazol-3-yl)pyridin-4-yl)-N-(4-azaspiro[2.5]octan-6-yl)pyrazine-2-carboxamide], for which the values for the half-inhibitory concentration (IC50) (against Chk2 kinase; in assay [1] (setting [2])) were ≤ 0.01 µM and 10 to 100 µM, respectively.
In the case of `N.N.[Cl][Pt][Cl]` [cisplatin, reference compound], the half-inhibitory concentration (IC50) in assay [1] (alone, read-out: Administered alone (IC50)) amounted to 26 µM.
With `CC1(C)Cc2c(-c3nccc(-c4cnc(N)c(C(=O)N[C@H]5CCC6(CC6)NC5)n4)n3)cnn2C1` [Example 63, (S)-3-amino-6-(2-(5,5-dimethyl-5,6-dihydro-4H-pyrrolo[1,2-b]pyrazol-3-yl)pyrimidin-4-yl)-N-(4-azaspiro[2.5]octan-6-yl) pyrazine-2-carboxamide], the values for the IC50 (at Chk2 kinase; in assay [1] (setting [2])) were ≤ 0.01 µM and 10 to 100 µM, respectively.
Taken in the same sequence, the figures for `CC1(C)Cc2c(-c3cccc(-c4cnc(N)c(C(=O)N[C@@H]5CNCC[C@H]5O)n4)c3)cnn2C1` [Example 52, 3-amino-6-(3-(5,5-dimethyl-5,6-dihydro-4H-pyrrolo[1,2-b]pyrazol-3-yl)phenyl)-N-((3R,4R)-4-hydroxypiperidine-3-yl)pyrazine-2-carboxamide] were 0.01 to 0.1 µM and 10 to 100 µM.
Turning to `CC1(C)Cc2c(-c3cc(-c4cnc(N)c(C(=O)N[C@@H]5CNC[C@H]5O)n4)ccn3)cnn2C1` [Example 54, 3-amino-6-(2-(5,5-dimethyl-5,6-dihydro-4H-pyrrolo[1,2-b]pyrazol-3-yl)pyridin-4-yl)-N-((3R,4R)-4-hydroxypyrrolidin-3-yl)pyrazine-2-carboxamide], the IC50 at Chk2 kinase was ≤ 0.01 µM; in assay [1] (setting [2]), > 100 µM.
With `CC(C)(O)Cn1cc(-c2cc(-c3cnc(N)c(C(=O)N[C@H]4CCC5(CC5)NC4)n3)ccn2)cn1` [Example 7, (S)-3-amino-6-(2-(1-(2-hydroxy-2-methylpropyl)-1H-pyrazol-4-yl)pyridin-4-yl)-N-(4-azaspiro[2.5]octan-6-yl)pyrazine-2-carboxamide], the IC50 against Chk2 kinase was ≤ 0.01 µM; in assay [1] (setting [2]), 10 to 100 µM.
Take `CC1(C)Cc2c(-c3cc(-c4cnc(N)c(C(=O)N[C@@H]5CNC[C@@H](F)C5)n4)ccn3)cnn2C1` [Example 48, 3-amino-6-(2-(5,5-dimethyl-5,6-dihydro-4H-pyrrolo[1,2-b]pyrazol-3-yl)pyridin-4-yl)-N-((3S,5S)-5-fluoropiperidin-3-yl)pyrazine-2-carboxamide]: the IC50 at Chk2 kinase was ≤ 0.01 µM; in assay [1] (setting [2]), 10 to 100 µM.
With `CC(C)(O)Cn1cc(-c2cc(-c3cnc(N)c(C(=O)NC4CNC[C@@H](F)C4)n3)ccn2)cn1` (stereo partly drawn) [Example 34, 3-amino-N-((3S,5S)-5-fluoropiperidin-3-yl)-6-(2-(1-(2-hydroxy-2-methylpropyl)-1H-pyrazol-4-yl)pyridin-4-yl)pyrazine-2-carboxamide], in assay [1] (setting [2]), the IC50 is 10 to 100 µM.
With `CC1(C)Cc2c(-c3ccc(O)c(-c4cnc(N)c(C(=O)N[C@@H]5CNC[C@H]5O)n4)c3)cnn2C1` [Example 57, 3-amino-6-(5-(5,5-dimethyl-5,6-dihydro-4H-pyrrolo[1,2-b]pyrazol-3-yl)-2-hydroxyphenyl)-N-((3R,4R)-4-hydroxypyrrolidin-3-yl)pyrazine-2-carboxamide], the concentration for half-maximal inhibition (IC50) on Chk2 kinase is 0.01 to 0.1 µM; in assay [1] (setting [2]), > 100 µM.
The corresponding values for `CC1(C)Cc2c(-c3ccc(O)c(-c4cnc(N)c(C(=O)N[C@H]5CCC6(CC6)NC5)n4)c3)cnn2C1` [Example 56, (S)-3-amino-6-(5-(5,5-dimethyl-5,6-dihydro-4H-pyrrolo[1,2-b]pyrazol-3-yl)-2-hydroxyphenyl)-N-(4-azaspiro[2.5]octan-6-yl)pyrazine-2-carboxamide] are ≤ 0.01 µM and 10 to 100 µM.
Consider `Nc1ncc(-c2cc(-c3cnn(CC(F)(F)F)c3)ccc2O)nc1C(=O)N[C@H]1CCCNC1` [Example 24, (S)-3-amino-6-(2-hydroxy-5-(1-(2,2,2-trifluoroethyl)-1H-pyrazol-4-yl)phenyl)-N-(piperidin-3-yl) pyrazine-2-carboxamide], for which the IC50 against Chk2 kinase is ≤ 0.01 µM; in assay [1] (setting [2]), 10 to 100 µM.
Regarding `CC1(C)Cc2c(-c3cccc(-c4cnc(N)c(C(=O)N[C@@H]5CNC[C@H]5O)n4)c3)cnn2C1` [Example 60, 3-amino-6-(3-(5,5-dimethyl-5,6-dihydro-4H-pyrrolo[1,2-b]pyrazol-3-yl)phenyl)-N-((3R,4R)-4-hydroxypyrrolidin-3-yl)pyrazine-2-carboxamide], the concentration for half-maximal inhibition (IC50) against Chk2 kinase was ≤ 0.01 µM; in assay [1] (setting [2]) it was > 100 µM.
Taken in the same sequence, the figures for `Nc1ncc(-c2cc(-c3cnn(CC(F)(F)F)c3)ccc2O)nc1C(=O)N[C@@H]1CNC[C@@H](F)C1` [Example 23, 3-amino-N-((3S,5S)-5-fluoropiperidin-3-yl)-6-(2-hydroxy-5-(1-(2,2,2-trifluoroethyl)-1H-pyrazol-4-yl)phenyl)pyrazine-2-carboxamide] were ≤ 0.01 µM and 10 to 100 µM.
The corresponding values for `CC(C)(O)Cn1cc(-c2cc(-c3cnc(N)c(C(=O)N[C@H]4CCCNC4)n3)ccn2)cn1` [Example 5, (S)-3-amino-6-(2-(1-(2-hydroxy-2-methylpropyl)-1H-pyrazol-4-yl)pyridin-4-yl)-N-(piperidin-3-yl) pyrazine-2-carboxamide] are ≤ 0.01 µM and > 100 µM.
Taken in the same sequence, the figures for `CC1(C)Cc2c(-c3cc(-c4cnc(N)c(C(=O)N[C@@H]5CNCC[C@H]5O)n4)ccn3)cnn2C1` [Example 53, 3-amino-6-(2-(5,5-dimethyl-5,6-dihydro-4H-pyrrolo[1,2-b]pyrazol-3-yl)pyridin-4-yl)-N-((3R,4R)-4-hydroxypiperidin-3-yl)pyrazine-2-carboxamide] were 0.01 to 0.1 µM and > 100 µM.
Regarding `CC1(C)Cc2c(-c3ccc(O)c(-c4cnc(N)c(C(=O)N[C@@H]5CNC[C@@H](F)C5)n4)c3)cnn2C1` [Example 55, 3-amino-6-(5-(5,5-dimethyl-5,6-dihydro-4H-pyrrolo[1,2-b]pyrazol-3-yl)-2-hydroxyphenyl)-N-((3S,5S)-5-fluoropiperidin-3-yl)pyrazine-2-carboxamide], the figures for the half-maximal inhibitory concentration (IC50) (on Chk2 kinase; in assay [1] (setting [2])) were ≤ 0.01 µM and 10 to 100 µM, respectively.
For `CC1(C)Cc2c(-c3cc(-c4cnc(N)c(C(=O)N[C@H]5CCCNC5)n4)ccn3)cnn2C1` [Example 49, (S)-3-amino-6-(2-(5,5-dimethyl-5,6-dihydro-4H-pyrrolo[1,2-b]pyrazol-3-yl)pyridin-4-yl)-N-(piperidin-3-yl)pyrazine-2-carboxamide], the values for the half-inhibitory concentration (IC50) (against Chk2 kinase; in assay [1] (setting [2])) were ≤ 0.01 µM and 10 to 100 µM, respectively.
Taken in the same sequence, the figures for `Nc1ncc(-c2cc(-c3cnn(CC(F)(F)F)c3)ccc2F)nc1C(=O)N[C@@H]1CNCC[C@H]1O` [Example 10, 3-amino-6-(2-fluoro-5-(1-(2,2,2-trifluoroethyl)-1H-pyrazol-4-yl)phenyl)-N-((3R,4R)-4-hydroxypiperidin-3-yl) pyrazine-2-carboxamide] were 0.01 to 0.1 µM and 10 to 100 µM.
The corresponding values for `CC1(C)Cc2c(-c3cccc(-c4cnc(N)c(C(=O)N[C@@H]5CNCCOC5)n4)c3)cnn2C1` (stereo in doubt) [Example 61, 3-amino-6-(3-(5,5-dimethyl-5,6-dihydro-4H-pyrrolo[1,2-b]pyrazol-3-yl)phenyl)-N-(1,4-oxazepan-6-yl)pyrazine-2-carboxamide] are ≤ 0.01 µM and > 100 µM.
Turning to `COc1cccc2c1C(=O)c1c(O)c3c(c(O)c1C2=O)C[C@@](O)(C(=O)CO)C[C@@H]3O[C@H]1C[C@H](N)[C@H](O)[C@H](C)O1` [doxorubicin, reference compound], the concentration for half-maximal inhibition (IC50) in assay [1] (Homo sapiens, MCF7, 72 h, alone, read-out: Administered alone (IC50)) is 1.5 µM.
